{
  "source": "patent US20080207573A1",
  "about": "“COMPOUNDS FOR TREATING VIRAL INFECTIONS” (priority 2006, published 2008)",
  "key": {"[1]": {"test": "Human Liver Microsome Assay (metabolic stability)", "format": "in vitro ADME", "settings": "human liver microsomes 0.5 mg/mL, test article 1 μM; for half-life at 1 μM: pH 7.4, read-out: Metabolic Stability in Human liver Microsomes T1/2", "description": "Human Liver Microsome Assay\nThe microsomal fraction of liver homogenates contains endoplasmic reticulum derived cytochrome P450 enzymes that constitute the major phase I drug metabolizing enzymes. Briefly, to aid prediction of the in vivo rate of clearance of a dosed test article, an in vitro incubation containing human liver microsomes (0.5 mg/mL final protein concentration) and test article (1 μM incubation concentration) in the presence and absence of the necessary cofactor NADPH (1 mM incubation concentration) is conducted. The incubation is performed in a buffered aqueous system (100 mM potassium phosphate, pH 7.4). The concentration of the parent compound is determined using liquid chromatography coupled with tandem mass spectrometry and reported as percent remaining from a zero minute concentrations."}, "HIV-1IIIB": {"test_system": "HIV-1IIIB", "test": "PBMC Drug Susceptibility Assay (HIV-1 p24 in supernatant)", "format": "cell-based", "settings": "Human immunodeficiency virus 1, PBMC, 168 h, HIV-1IIIB-infected human PBMCs, seven days", "description": "PBMC Drug Susceptibility Assay\nHuman peripheral blood mononuclear cells (PBMCS) were used to test compound antiviral activity as an indicator for clinical efficacy. PBMCs were isolated from two donors using a Ficoll-Hypaque density gradient, pooled and stimulated with PHA-L for three days. After stimulation, the cells were washed and maintained in culture medium containing IL-2. The stimulated cells were then mock-infected or batch-infected with the strain HIV-1IIIB at MOI 0.01 for one hour. Cells (unwashed) were then plated in the presence of increasing concentrations of compound and incubated for seven days. […] Compound toxicity in mock-infected cells was analyzed using the WST-1 assay."}, "[2]": {"test_system": "HIV-1 laboratory strain, NL4-3", "test": "MT-4 Cytoprotection Assay (protection from HIV-induced cytopathic effect, WST-1 readout)", "format": "cell-based", "description": "MT-4 Cytoprotection Assay\nThe HTLV-1 transformed T cell line, MT-4, is highly susceptible to HIV-1 infection. Anti-HIV-1 agents were evaluated in this target cell line by protection from the HIV-induced cytopathic effect. In this assay, viability of both HIV-1 and mock-infected cells was assessed in a […] assay that monitors the ability of metabolically-active cells to reduce the tetrazolium salt WST-1. Cytoprotection by antiviral compounds is indicated by the positive readout of increased WST-1 cleavage.\nBriefly, exponentially growing MT-4 cells were mock-infected or batch-infected with the HIV-1 laboratory strain, NL4-3, at a multiplicity of infection of 0.0005. Following a two hour infection, the cells were washed to remove unbound virus and plated in the presence of increasing concentrations of compound. After four days incubation, cytoprotection in the infected cells and compound toxicity in mock-infected cells were analyzed using the WST-1 assay."}, "[3]": {"settings": "Human immunodeficiency virus 1, NL43, list of representative compounds, read-out: EC50 of less than about 100 nm (representative compounds)"}, "[4]": {"settings": "Human immunodeficiency virus 1, NL43, MT4, Table 7, MT-4 cells, HIV-1 NL4-3, read-out: MT4 EC50"}},
  "note": "Where two headings read alike, the source gives them in different places.",
  "data": [
    {"smiles": "C=C(C)[C@@H]1CC[C@]2(C(=O)N[C@H](C)c3ccccn3)CC[C@]3(C)C(CCC4[C@@]5(C)CCC(OC(=O)CC(C)(C)C(=O)O)C(C)(C)C5CC[C@]43C)C12", "note": "(single isomer, unassigned) [Compound 105a]", "values": [
      {"measurement": "Metabolic Stability in Human liver Microsomes % compound remaining at 40 minutes", "setting": "[1]", "value": 44, "unit": "%"},
      {"measurement": "half-life at 1 μM", "setting": "[1]", "value": 36, "unit": "min"},
      {"measurement": "IC50", "setting": "HIV-1IIIB; Table 6", "value": 0.0026, "unit": "µM"}
    ]},
    {"smiles": "C=C(C)[C@@H]1CC[C@]2(C(=O)N[C@@H](C)c3ccccn3)CC[C@]3(C)C(CCC4[C@@]5(C)CCC(OC(=O)CC(C)(C)C(=O)O)C(C)(C)C5CC[C@]43C)C12", "note": "(single isomer, unassigned) [Compound 105b]", "values": [
      {"measurement": "Metabolic Stability in Human liver Microsomes % compound remaining at 40 minutes", "setting": "[1]", "value": 32, "unit": "%"},
      {"measurement": "half-life at 1 μM", "setting": "[1]", "value": 27, "unit": "min"},
      {"measurement": "IC50", "setting": "HIV-1IIIB; Table 6", "value": 0.0031, "unit": "µM"}
    ]},
    {"smiles": "C=C(C)[C@@H]1CC[C@]2(C(=O)NC(Cc3ccc(OC)cc3)C(=O)O)CC[C@]3(C)[C@H](CC[C@@H]4[C@@]5(C)CC[C@H](OC(=O)CC(C)(C)C(=O)O)C(C)(C)[C@@H]5CC[C@]43C)[C@@H]12", "note": "(stereo partly drawn) [Compound 119]", "values": [
      {"measurement": "EC50", "setting": "[2]; [3]", "value": "< 0.1", "unit": "µM"}
    ]},
    {"smiles": "C=C(C)[C@@H]1CC[C@]2(C(=O)NC(C(=O)O)c3ccc(OC)cc3)CC[C@]3(C)[C@H](CC[C@@H]4[C@@]5(C)CC[C@H](OC(=O)CC(C)(C)C(=O)O)C(C)(C)[C@@H]5CC[C@]43C)[C@@H]12", "note": "(stereo partly drawn) [Compound 120]", "values": [
      {"measurement": "EC50", "setting": "[2]; [3]", "value": "< 0.1", "unit": "µM"}
    ]},
    {"smiles": "CC(C)[C@@H]1CC[C@]2(C(=O)NCc3ccccc3C(=O)O)CC[C@]3(C)[C@H](CC[C@@H]4[C@@]5(C)CC[C@H](OC(=O)CC(C)(C)C(=O)O)C(C)(C)[C@@H]5CC[C@]43C)[C@@H]12", "note": "[Compound 122]", "values": [
      {"measurement": "EC50", "setting": "[2]; [3]", "value": "< 0.1", "unit": "µM"}
    ]},
    {"smiles": "CC(C)[C@@H]1CC[C@]2(C(=O)NCC3CCCO3)CC[C@]3(C)[C@H](CC[C@@H]4[C@@]5(C)CC[C@H](OC(=O)CC(C)(C)C(=O)O)C(C)(C)[C@@H]5CC[C@]43C)[C@@H]12", "note": "(stereo partly drawn) [Compound 123]", "values": [
      {"measurement": "EC50", "setting": "[2]; [3]", "value": "< 0.1", "unit": "µM"}
    ]},
    {"smiles": "C=C(C)[C@@H]1CC[C@]2(C(=O)NCCC3CCCCC3)CC[C@]3(C)[C@H](CC[C@@H]4[C@@]5(C)CC[C@H](OC(=O)CC(C)(C)C(=O)O)C(C)(C)[C@@H]5CC[C@]43C)[C@@H]12", "note": "[Compound 124]", "values": [
      {"measurement": "EC50", "setting": "[2]; [3]", "value": "< 0.1", "unit": "µM"}
    ]},
    {"smiles": "C=C(C)[C@@H]1CC[C@]2(C(=O)NC(C)(C)c3ccccn3)CC[C@]3(C)C(CCC4[C@@]5(C)CCC(OC(=O)CC(C)(C)C(=O)O)C(C)(C)C5CC[C@]43C)C12", "note": "(stereo partly drawn) [Compound 126]", "values": [
      {"measurement": "Metabolic Stability in Human liver Microsomes % compound remaining at 40 minutes", "setting": "[1]", "value": 47, "unit": "%"},
      {"measurement": "half-life at 1 μM", "setting": "[1]", "value": 38, "unit": "min"},
      {"measurement": "IC50", "setting": "HIV-1IIIB; Table 6", "value": 0.0475, "unit": "µM"}
    ]},
    {"smiles": "C=C(C)[C@@H]1CC[C@]2(C(=O)Nc3cccc4cccnc34)CC[C@]3(C)C(CCC4[C@@]5(C)CCC(OC(=O)CC(C)(C)C(=O)O)C(C)(C)C5CC[C@]43C)C12", "note": "(stereo partly drawn) [Compound 127]", "values": [
      {"measurement": "EC50", "setting": "[2]; [4]", "value": 3.1, "unit": "µM"}
    ]},
    {"smiles": "C=C(C)[C@@H]1CC[C@]2(C(=O)NCc3ccc(F)cc3C(=O)O)CC[C@]3(C)C(CCC4[C@@]5(C)CCC(OC(=O)CC(C)(C)C(=O)O)C(C)(C)C5CC[C@]43C)C12", "note": "(stereo partly drawn) [Compound 128]", "values": [
      {"measurement": "EC50", "setting": "[2]; [4]", "value": 0.028, "unit": "µM"},
      {"measurement": "IC50", "setting": "HIV-1IIIB; Table 7", "value": 0.0036, "unit": "µM"}
    ]},
    {"smiles": "C=C(C)[C@@H]1CC[C@]2(C(=O)NCc3ccc(C(=O)O)s3)CC[C@]3(C)C(CCC4[C@@]5(C)CCC(OC(=O)CC(C)(C)C(=O)O)C(C)(C)C5CC[C@]43C)C12", "note": "(stereo partly drawn) [Compound 129]", "values": [
      {"measurement": "EC50", "setting": "[2]; [4]", "value": 0.371, "unit": "µM"}
    ]},
    {"smiles": "C=C(C)[C@@H]1CC[C@]2(C(=O)NCc3cccnc3C(=O)O)CC[C@]3(C)C(CCC4[C@@]5(C)CCC(OC(=O)CC(C)(C)C(=O)O)C(C)(C)C5CC[C@]43C)C12", "note": "(stereo partly drawn) [Compound 130]", "values": [
      {"measurement": "EC50", "setting": "[2]; [4]", "value": 0.024, "unit": "µM"},
      {"measurement": "IC50", "setting": "HIV-1IIIB; Table 7", "value": 0.044, "unit": "µM"}
    ]},
    {"smiles": "C=C(C)[C@@H]1CC[C@]2(C(=O)NCc3ccc4cccc(O)c4n3)CC[C@]3(C)C(CCC4[C@@]5(C)CCC(OC(=O)CC(C)(C)C(=O)O)C(C)(C)C5CC[C@]43C)C12", "note": "(stereo partly drawn) [Compound 131]", "values": [
      {"measurement": "EC50", "setting": "[2]; [4]", "value": 0.003, "unit": "µM"},
      {"measurement": "IC50", "setting": "HIV-1IIIB; Table 7", "value": 0.0035, "unit": "µM"}
    ]},
    {"smiles": "C=C(C)[C@@H]1CC[C@]2(C(=O)N[C@@H](C)c3cccc[n+]3[O-])CC[C@]3(C)C(CCC4[C@@]5(C)CCC(OC(=O)CC(C)(C)C(=O)O)C(C)(C)C5CC[C@]43C)C12", "note": "(stereo partly drawn) [Compound 132]", "values": [
      {"measurement": "EC50", "setting": "[2]; [4]", "value": 0.036, "unit": "µM"},
      {"measurement": "IC50", "setting": "HIV-1IIIB; Table 7", "value": 0.044, "unit": "µM"}
    ]}
  ]
}
